From US11945822B2, “Pyrazolo-triazine and/or pyrazolo-pxrimidine derivatives as selective inhibitor of cyclin dependent kinase” (QURIENT CO., LTD., priority 2018, dated 2024)

target: T1, CDK2/Cyclin A (Homo sapiens, UniProt P24941); experiment: Enzymatic assay for CDK2 (FRET based LANCE Ultra kinase assay); format: biochemical; details: read-out: CDK2 enzymatic activity (IC50 range)
T1 construct: purchased Invitrogen PV6290
Procedure, shortened: (§1)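 TR-FRET (LANCE Ultra) kinase assay at ATP Km, ULight-MBP peptide substrate (68 nM), 8-dose 4-fold compound series in DMSO. Enzymes: […]; 60 min at 23° C., stopped with EDTA plus Eu-anti-phospho-MBP antibody, read 665/615 nm after 60 min.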

Row | IC50 | SMILES
1 | > 1 µM | CC(C)c1cnn2c(NCc3c(Cl)cccc3N3CCOCC3)nc(N3CCC(N)CC3)nc12 [Compound 206]
2 | > 1 µM | CC(C)c1cnn2c(NCc3c(Cl)cccc3-n3ccc(CO)n3)nc(N3CCC(N)CC3)nc12 [Compound 207]
3 | < 0.1 µM | CC(C)c1cnn2c(NCc3ccccc3-c3ccc4ccccc4n3)cc(NCC3(O)CCNCC3)nc12 [Compound 208]
4 | > 1 µM | CC(C)c1cnn2c(NCc3ccccc3-c3ccc4ccccc4n3)nc(NCC3CCNCC3)nc12 [Compound 209]

test system: HCT116; experiment: Cellular HCT116 viability assay (CellTiter-Glo, 72 hours); format: cell-based; details: Homo sapiens, HCT-116
Experimental: (§2) All cell lines were routinely tested for mycoplasma.
(§3) The effect of the CDK7 inhibitor to inhibit the growth of target cancer cells was evaluated through the 72 hours time period of viability assay. Briefly, the candidate cell line ware plated in 96 well plate at the following density of cells respectively. […] DMSO solvent without compound served as a control and final DMSO concentration less than 0.1%. After 72 hours of incubation at 37° C., 5% CO2 incubator, cells were analyzed for the viability using the CellTiter-Glo Luminescent Cell Viability Assay (Promega, Cat #G7570). All viability assays were performed in duplicate and Luminescence was read using an Envision (Perkin Elmer, USA). Data was analyzed using XLfit software.

Row | IC50 | SMILES
5 | < 1 µM | CC(C)c1cnn2c(NCc3c(Cl)cccc3N3CCOCC3)nc(N3CCC(N)CC3)nc12 [Compound 206]
6 | < 1 µM | CC(C)c1cnn2c(NCc3c(Cl)cccc3-n3ccc(CO)n3)nc(N3CCC(N)CC3)nc12 [Compound 207]
7 | < 1 µM | CC(C)c1cnn2c(NCc3ccccc3-c3ccc4ccccc4n3)cc(NCC3(O)CCNCC3)nc12 [Compound 208]
8 | < 1 µM | CC(C)c1cnn2c(NCc3ccccc3-c3ccc4ccccc4n3)nc(NCC3CCNCC3)nc12 [Compound 209]

test system: H460; experiment: Cellular H460 viability assay (CellTiter-Glo, 72 hours); format: cell-based; details: Homo sapiens, NCI-H460
Procedure, shortened: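 CellTiter-Glo luminescence read in duplicate after 72 h compound exposure (37 °C, 5% CO2); DMSO-only control, final DMSO under 0.1%.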

Row | IC50 | SMILES
9 | < 1 µM | CC(C)c1cnn2c(NCc3c(Cl)cccc3N3CCOCC3)nc(N3CCC(N)CC3)nc12 [Compound 206]
10 | < 1 µM | CC(C)c1cnn2c(NCc3c(Cl)cccc3-n3ccc(CO)n3)nc(N3CCC(N)CC3)nc12 [Compound 207]
11 | < 1 µM | CC(C)c1cnn2c(NCc3ccccc3-c3ccc4ccccc4n3)cc(NCC3(O)CCNCC3)nc12 [Compound 208]
12 | < 1 µM | CC(C)c1cnn2c(NCc3ccccc3-c3ccc4ccccc4n3)nc(NCC3CCNCC3)nc12 [Compound 209]

target: T2, CDK5/p25 (Homo sapiens, UniProt Q00535); experiment: Enzymatic assay for CDK5 (FRET based LANCE Ultra kinase assay); format: biochemical; details: read-out: CDK5 enzymatic activity (IC50 range)
T2 construct: purchased Invitrogen PR8543B
T2 sequence (Q00535 whole entry): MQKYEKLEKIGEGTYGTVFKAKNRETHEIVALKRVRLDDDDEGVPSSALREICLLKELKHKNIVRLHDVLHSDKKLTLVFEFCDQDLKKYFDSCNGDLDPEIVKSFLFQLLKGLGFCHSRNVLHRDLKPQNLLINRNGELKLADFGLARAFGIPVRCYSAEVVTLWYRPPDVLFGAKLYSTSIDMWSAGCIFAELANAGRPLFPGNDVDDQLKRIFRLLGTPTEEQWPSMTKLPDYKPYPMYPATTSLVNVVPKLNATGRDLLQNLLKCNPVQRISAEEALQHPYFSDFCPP
T2 sequence (Q15078 99-307 partner limits assumed): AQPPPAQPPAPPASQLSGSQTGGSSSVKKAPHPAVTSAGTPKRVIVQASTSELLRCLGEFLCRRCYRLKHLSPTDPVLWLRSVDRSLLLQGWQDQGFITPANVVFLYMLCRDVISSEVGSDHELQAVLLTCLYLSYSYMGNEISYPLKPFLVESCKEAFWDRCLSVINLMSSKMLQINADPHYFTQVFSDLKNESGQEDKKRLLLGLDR
Procedure, shortened: as §1

Row | IC50 | SMILES
13 | 0.1 to 1 µM | CC(C)c1cnn2c(NCc3c(Cl)cccc3N3CCOCC3)nc(N3CCC(N)CC3)nc12 [Compound 206]
14 | 0.1 to 1 µM | CC(C)c1cnn2c(NCc3c(Cl)cccc3-n3ccc(CO)n3)nc(N3CCC(N)CC3)nc12 [Compound 207]
15 | 0.1 to 1 µM | CC(C)c1cnn2c(NCc3ccccc3-c3ccc4ccccc4n3)cc(NCC3(O)CCNCC3)nc12 [Compound 208]
16 | > 1 µM | CC(C)c1cnn2c(NCc3ccccc3-c3ccc4ccccc4n3)nc(NCC3CCNCC3)nc12 [Compound 209]

target: T3, CDK7/Cyclin H/MNAT1 (Homo sapiens, UniProt P50613); experiment: Enzymatic assay for CDK7 (FRET based LANCE Ultra kinase assay); format: biochemical; details: CDK7 over CDK1
T3 construct: purchased Invitrogen PR6749B
T3 sequence (P50613 whole entry): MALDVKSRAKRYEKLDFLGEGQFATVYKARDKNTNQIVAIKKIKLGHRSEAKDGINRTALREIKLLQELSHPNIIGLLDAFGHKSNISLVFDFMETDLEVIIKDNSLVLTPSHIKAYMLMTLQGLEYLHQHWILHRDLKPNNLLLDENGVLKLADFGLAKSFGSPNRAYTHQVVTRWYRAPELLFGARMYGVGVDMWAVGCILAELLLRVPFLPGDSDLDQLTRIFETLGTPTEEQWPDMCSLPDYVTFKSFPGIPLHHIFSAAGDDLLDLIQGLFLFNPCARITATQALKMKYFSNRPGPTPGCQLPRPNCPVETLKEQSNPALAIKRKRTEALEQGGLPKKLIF
T3 sequence (P51946 whole entry partner): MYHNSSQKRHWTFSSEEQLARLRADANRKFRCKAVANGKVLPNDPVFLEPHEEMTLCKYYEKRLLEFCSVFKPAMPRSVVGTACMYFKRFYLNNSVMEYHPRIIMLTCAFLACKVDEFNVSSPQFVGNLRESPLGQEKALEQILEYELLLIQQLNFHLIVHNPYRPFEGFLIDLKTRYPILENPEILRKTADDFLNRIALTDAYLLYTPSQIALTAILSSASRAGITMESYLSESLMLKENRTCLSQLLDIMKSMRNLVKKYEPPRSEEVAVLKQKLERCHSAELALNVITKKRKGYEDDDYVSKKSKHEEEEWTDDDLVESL
T3 sequence (P51948 whole entry partner): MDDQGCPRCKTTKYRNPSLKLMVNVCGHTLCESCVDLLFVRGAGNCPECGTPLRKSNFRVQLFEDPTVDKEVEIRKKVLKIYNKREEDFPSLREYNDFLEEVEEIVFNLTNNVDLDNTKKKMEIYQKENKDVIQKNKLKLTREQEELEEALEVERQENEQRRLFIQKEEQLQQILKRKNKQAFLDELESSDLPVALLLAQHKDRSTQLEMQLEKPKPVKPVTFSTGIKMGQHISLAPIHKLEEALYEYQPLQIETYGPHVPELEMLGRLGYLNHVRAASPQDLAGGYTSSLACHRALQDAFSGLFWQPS
Procedure, shortened: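 Inhibition was measured at Km ATP by time-resolved FRET between a Eu anti-phospho antibody and a phosphorylated ULight peptide. The enzyme was the purified CDK7/cyclin complex, and data were curve-fitted.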

Row | CDK1/CDK7: Selectivity of CDK7 inhibition over CDK1 inhibition | SMILES
17 | A (A=greater than 200 fold) | CC(C)c1cnn2c(NCc3c(Cl)cccc3N3CCOCC3)nc(N3CCC(N)CC3)nc12 [Compound 206]
18 | A (A=greater than 200 fold) | CC(C)c1cnn2c(NCc3c(Cl)cccc3-n3ccc(CO)n3)nc(N3CCC(N)CC3)nc12 [Compound 207]
19 | A (A=greater than 200 fold) | CC(C)c1cnn2c(NCc3ccccc3-c3ccc4ccccc4n3)nc(NCC3CCNCC3)nc12 [Compound 209]

Row | SMILES | CDK1/CDK7: Selectivity of CDK7 inhibition over CDK1 inhibition
20 | CC(C)c1cnn2c(NCc3ccccc3-c3ccc4ccccc4n3)cc(NCC3(O)CCNCC3)nc12 [Compound 208] | B (B=less than 200 fold, but greater than 20 fold)

same assay, conditions: CDK7 over CDK2

Row | CDK2/CDK7: Selectivity of CDK7 inhibition over CDK2 inhibition | SMILES
21 | A (A=greater than 200 fold) | CC(C)c1cnn2c(NCc3c(Cl)cccc3N3CCOCC3)nc(N3CCC(N)CC3)nc12 [Compound 206]
22 | A (A=greater than 200 fold) | CC(C)c1cnn2c(NCc3c(Cl)cccc3-n3ccc(CO)n3)nc(N3CCC(N)CC3)nc12 [Compound 207]
23 | C (C=less than 20 fold) | CC(C)c1cnn2c(NCc3ccccc3-c3ccc4ccccc4n3)cc(NCC3(O)CCNCC3)nc12 [Compound 208]
24 | A (A=greater than 200 fold) | CC(C)c1cnn2c(NCc3ccccc3-c3ccc4ccccc4n3)nc(NCC3CCNCC3)nc12 [Compound 209]

same assay, conditions: CDK7 over CDK5

Row | SMILES | CDK5/CDK7: Selectivity of CDK7 inhibition over CDK5 inhibition
25 | CC(C)c1cnn2c(NCc3c(Cl)cccc3N3CCOCC3)nc(N3CCC(N)CC3)nc12 [Compound 206] | B (B=less than 200 fold, but greater than 20 fold)
26 | CC(C)c1cnn2c(NCc3c(Cl)cccc3-n3ccc(CO)n3)nc(N3CCC(N)CC3)nc12 [Compound 207] | B (B=less than 200 fold, but greater than 20 fold)
27 | CC(C)c1cnn2c(NCc3ccccc3-c3ccc4ccccc4n3)cc(NCC3(O)CCNCC3)nc12 [Compound 208] | B (B=less than 200 fold, but greater than 20 fold)
28 | CC(C)c1cnn2c(NCc3ccccc3-c3ccc4ccccc4n3)nc(NCC3CCNCC3)nc12 [Compound 209] | A (A=greater than 200 fold)

same assay, conditions: read-out: CDK7 enzymatic activity (IC50 range)

Row | IC50 | SMILES
29 | < 0.1 µM | CC(C)c1cnn2c(NCc3c(Cl)cccc3N3CCOCC3)nc(N3CCC(N)CC3)nc12 [Compound 206]
30 | < 0.1 µM | CC(C)c1cnn2c(NCc3c(Cl)cccc3-n3ccc(CO)n3)nc(N3CCC(N)CC3)nc12 [Compound 207]
31 | < 0.1 µM | CC(C)c1cnn2c(NCc3ccccc3-c3ccc4ccccc4n3)cc(NCC3(O)CCNCC3)nc12 [Compound 208]
32 | < 0.1 µM | CC(C)c1cnn2c(NCc3ccccc3-c3ccc4ccccc4n3)nc(NCC3CCNCC3)nc12 [Compound 209]

test system: MV4-11; experiment: Cellular MV4-11 viability assay (CellTiter-Glo, 72 hours); format: cell-based; details: Homo sapiens
Experimental: as §2, §3

Row | IC50 | SMILES
33 | < 1 µM | CC(C)c1cnn2c(NCc3c(Cl)cccc3N3CCOCC3)nc(N3CCC(N)CC3)nc12 [Compound 206]
34 | < 1 µM | CC(C)c1cnn2c(NCc3c(Cl)cccc3-n3ccc(CO)n3)nc(N3CCC(N)CC3)nc12 [Compound 207]
35 | < 1 µM | CC(C)c1cnn2c(NCc3ccccc3-c3ccc4ccccc4n3)cc(NCC3(O)CCNCC3)nc12 [Compound 208]
36 | < 1 µM | CC(C)c1cnn2c(NCc3ccccc3-c3ccc4ccccc4n3)nc(NCC3CCNCC3)nc12 [Compound 209]

target: T4, CDK1/Cyclin B (Homo sapiens, UniProt P06493); experiment: Enzymatic assay for CDK1 (FRET based LANCE Ultra kinase assay); format: biochemical; details: read-out: CDK1 enzymatic activity (IC50 range)
T4 construct: purchased Invitrogen PR4768C
T4 sequence (P06493 whole entry): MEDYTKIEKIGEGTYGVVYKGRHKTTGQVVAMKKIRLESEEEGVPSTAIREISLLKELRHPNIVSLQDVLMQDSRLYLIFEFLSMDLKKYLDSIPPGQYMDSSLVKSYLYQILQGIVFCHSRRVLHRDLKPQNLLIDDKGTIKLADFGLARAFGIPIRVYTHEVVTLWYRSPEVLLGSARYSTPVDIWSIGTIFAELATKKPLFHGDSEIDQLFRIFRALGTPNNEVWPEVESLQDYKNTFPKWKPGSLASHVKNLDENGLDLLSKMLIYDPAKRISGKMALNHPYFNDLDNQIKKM
T4 sequence (P14635 whole entry partner): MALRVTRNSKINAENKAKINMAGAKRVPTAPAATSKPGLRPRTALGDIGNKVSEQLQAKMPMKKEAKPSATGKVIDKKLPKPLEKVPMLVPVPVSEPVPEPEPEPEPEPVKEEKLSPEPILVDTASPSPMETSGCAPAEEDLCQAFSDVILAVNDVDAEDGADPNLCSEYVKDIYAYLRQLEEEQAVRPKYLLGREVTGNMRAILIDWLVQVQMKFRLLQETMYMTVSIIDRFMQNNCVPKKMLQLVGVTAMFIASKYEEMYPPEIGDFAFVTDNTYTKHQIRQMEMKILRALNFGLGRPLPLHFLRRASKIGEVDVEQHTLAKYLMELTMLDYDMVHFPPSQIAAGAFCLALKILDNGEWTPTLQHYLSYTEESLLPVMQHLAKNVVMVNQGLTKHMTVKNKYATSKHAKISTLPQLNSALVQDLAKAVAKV
Procedure, shortened: as §1

Row | IC50 | SMILES
37 | > 1 µM | CC(C)c1cnn2c(NCc3c(Cl)cccc3N3CCOCC3)nc(N3CCC(N)CC3)nc12 [Compound 206]
38 | > 1 µM | CC(C)c1cnn2c(NCc3c(Cl)cccc3-n3ccc(CO)n3)nc(N3CCC(N)CC3)nc12 [Compound 207]
39 | 0.1 to 1 µM | CC(C)c1cnn2c(NCc3ccccc3-c3ccc4ccccc4n3)cc(NCC3(O)CCNCC3)nc12 [Compound 208]
40 | > 1 µM | CC(C)c1cnn2c(NCc3ccccc3-c3ccc4ccccc4n3)nc(NCC3CCNCC3)nc12 [Compound 209]
